A value given as a limit tells only on which side of the number the result lay.

One test deals with T1, PDE10A (Homo sapiens (Human), UniProt Q9Y233). Briefly: biochemical.
T1 sequence (Q9Y233 other isoform, or with tags, fused parts or gaps): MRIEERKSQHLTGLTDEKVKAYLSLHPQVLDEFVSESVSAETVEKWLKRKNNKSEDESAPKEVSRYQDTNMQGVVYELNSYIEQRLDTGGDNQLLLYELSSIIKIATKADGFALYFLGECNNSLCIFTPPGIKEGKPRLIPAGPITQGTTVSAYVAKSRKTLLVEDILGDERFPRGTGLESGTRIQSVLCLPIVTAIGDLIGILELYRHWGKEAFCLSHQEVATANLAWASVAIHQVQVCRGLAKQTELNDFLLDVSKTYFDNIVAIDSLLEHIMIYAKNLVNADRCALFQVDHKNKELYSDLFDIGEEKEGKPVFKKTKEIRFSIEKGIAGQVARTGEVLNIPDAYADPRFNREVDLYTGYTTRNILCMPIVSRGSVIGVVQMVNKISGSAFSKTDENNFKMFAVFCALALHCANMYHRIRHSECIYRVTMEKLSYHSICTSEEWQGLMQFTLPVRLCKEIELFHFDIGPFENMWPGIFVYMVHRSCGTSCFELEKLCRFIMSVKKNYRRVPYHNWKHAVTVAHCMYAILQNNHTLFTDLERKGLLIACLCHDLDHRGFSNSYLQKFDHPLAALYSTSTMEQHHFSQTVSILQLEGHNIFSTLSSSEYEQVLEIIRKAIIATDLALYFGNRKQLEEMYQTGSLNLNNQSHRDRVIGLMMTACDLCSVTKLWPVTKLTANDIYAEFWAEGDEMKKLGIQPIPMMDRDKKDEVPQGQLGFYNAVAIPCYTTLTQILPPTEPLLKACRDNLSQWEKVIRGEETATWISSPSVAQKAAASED
Settings: not given
Turning to `Cc1nc2cc(Cl)ccc2n2c(-c3cc(OCCCC(F)(F)F)ccc3Cl)nnc12` [Example 27, 7-Chloro-1-[2-chloro-5-(4,4,4-trifluoro-butoxy)-phenyl]-4-methyl-[1,2,4]triazolo[4,3-a]quinoxaline], the IC50 is more than 1000 nM. `COCCOc1ccc(F)c(-c2nnc3cnc4cc(Cl)ccc4n23)c1` [Example 29, 7-Chloro-1-[2-fluoro-5-(2-methoxy-ethoxy)-phenyl]-[1,2,4]triazolo[4,3-a]quinoxaline] gave an IC50 of more than 1000 nM.

Consider `CSc1ncccc1-c1nnc2c(C)nc3cc(C(F)(F)F)ccc3n12` [Example 69, 4-Methyl-1-(2-methylsulfanyl-pyridin-3-yl)-7-trifluoromethyl-[1,2,4]triazolo[4,3-a]quinoxaline], for which the IC50 is more than 1000 nM. Same read-out and setting: the figure for `Cc1nc2cc(C(F)(F)F)ccc2n2c(-c3c(F)cccc3F)nnc12` [Example 70, 1-(2,6-Difluoro-phenyl)-4-methyl-7-trifluoromethyl-[1,2,4]triazolo[4,3-a]quinoxaline] is 77 nM; for `COc1ccc2c(c1)nc(C)c1nnc(-c3c(F)cccc3F)n12` [Example 75, 1-(2,6-Difluoro-phenyl)-7-methoxy-4-methyl-[1,2,4]triazolo[4,3-a]quinoxaline] it is 334 nM; for `Cc1nc2cc(OCc3ccc(F)cc3)ccc2n2c(-c3ccccc3Cl)nnc12` [Example 77, 1-(2-Chloro-phenyl)-7-(4-fluoro-benzyloxy)-4-methyl-[1,2,4]triazolo[4,3-a]quinoxaline] it is 118 nM. `Cc1nc2ccccc2n2c(-c3cc(OCCN4CCN(C)CC4)ccc3Cl)nnc12` [Example 94, 1-{2-Chloro-5-[2-(4-methyl-piperazin-1-yl)-ethoxy]-phenyl}-4-methyl-[1,2,4]triazolo[4,3-a]quinoxaline]: the concentration for half-maximal inhibition (IC50) was more than 1000 nM. Still for that read-out and setting: the result for `Cc1nc2ccccc2n2c(-c3cc(OC[C@H](C)O)ccc3Cl)nnc12` [Example 103, (S) 1-[4-Chloro-3-(4-methyl-[1,2,4]triazolo[4,3-a]quinoxalin-1-yl)-phenoxy]-propan-2-ol] reads more than 1000 nM.

As to `Cc1nc2ccccc2n2c(-c3cc(OC[C@@H](C)O)ccc3Cl)nnc12` [Example 104, (R) 1-[4-Chloro-3-(4-methyl-[1,2,4]triazolo[4,3-a]quinoxalin-1-yl)-phenoxy]-propan-2-ol], the IC50 is more than 1000 nM. On to `Cc1nc2ccccc2n2c(-c3cc(OCC(O)c4ccccn4)ccc3Cl)nnc12` (stereo not shown) [Example 105, 2-[4-Chloro-3-(4-methyl-[1,2,4]triazolo[4,3-a]quinoxalin-1-yl)-phenoxy]-1-pyridin-2-yl-ethanol], for which the IC50 is more than 1000 nM. As to `Cc1nc2ccccc2n2c(-c3cc(OCC(F)c4ccccn4)ccc3Cl)nnc12` (stereo not shown) [Example 106, 1-[2-Chloro-5-(2-fluoro-2-pyridin-2-yl-ethoxy)-phenyl]-4-methyl-[1,2,4]triazolo[4,3-a]quinoxaline], the IC50 was found to be 963 nM.

The target in a further test is T1, PDE10A.
Assay: not given
As to conditions: read-out: Inhibition of PDE10A, IC50.
Turning to `Cc1nc2cc(O)ccc2n2c(-c3ccccc3Cl)nnc12` [Example 76, 1-(2-Chloro-phenyl)-4-methyl-[1,2,4]triazolo[4,3-a]quinoxalin-7-ol], the IC50 is 274 nM. On the same count and under the same terms, the figure for `COc1ccc(CCOc2ccc3c(c2)nc(C)c2nnc(-c4ccccc4Cl)n23)cc1OC` [Example 78, 1-(2-Chloro-phenyl)-7-[2-(3,4-dimethoxy-phenyl)-ethoxy]-4-methyl-[1,2,4]triazolo[4,3-a]quinoxaline] is 48 nM; for `Cc1nc2cc(OCc3ccc4ccccc4n3)ccc2n2c(-c3ccccc3Cl)nnc12` [Example 79, 1-(2-Chloro-phenyl)-4-methyl-7-(quinolin-2-ylmethoxy)-[1,2,4]triazolo[4,3-a]quinoxaline] it is 1 nM; for `Cc1nc2ccc(OCc3ccc4ccccc4n3)cc2n2c(-c3ccccc3Cl)nnc12` [Example 80, 1-(2-Chloro-phenyl)-4-methyl-8-(quinolin-2-ylmethoxy)-[1,2,4]triazolo[4,3-a]quinoxaline] it is 10 nM. Same read-out and setting: the result for `CC(=O)OCCCCOc1ccc(Cl)c(-c2nnc3c(C)nc4ccccc4n23)c1` [Example 89, Acetic acid 4-[4-chloro-3-(4-methyl-[1,2,4]triazolo[4,3-a]quinoxalin-1-yl)-phenoxy]-butyl ester] reads more than 1000 nM. For the molecule `Cc1nc2ccccc2n2c(-c3cc(OCCN4CCOCC4)ccc3Cl)nnc12` [Example 91, 1-[2-Chloro-5-(2-morpholin-4-yl-ethoxy)-phenyl]-4-methyl-[1,2,4]triazolo[4,3-a]quinoxaline], the IC50 was more than 1000 nM. Take `Cc1nc2ccccc2n2c(-c3cc(OCC(=O)c4ccccn4)ccc3Cl)nnc12` [Example 93, 2-[4-Chloro-3-(4-methyl-[1,2,4]triazolo[4,3-a]quinoxalin-1-yl)-phenoxy]-1-pyridin-2-yl-ethanone]: the IC50 was more than 1000 nM. On the same count and under the same terms, the result for `Cc1nc2ccccc2n2c(-c3cc(OCCN4CCCCC4)ccc3Cl)nnc12` [Example 95, 1-[2-Chloro-5-(2-piperidin-1-yl-ethoxy)-phenyl]-4-methyl-[1,2,4]triazolo[4,3-a]quinoxaline] reads more than 1000 nM; that for `Cc1nc2ccccc2n2c(-c3cc(OCCN4CCCC4)ccc3Cl)nnc12` [Example 96, 1-[2-Chloro-5-(2-pyrrolidin-1-yl-ethoxy)-phenyl]-4-methyl-[1,2,4]triazolo[4,3-a]quinoxaline], more than 1000 nM; that for `Cc1nc2ccccc2n2c(-c3cc(OCCC4CCOCC4)ccc3Cl)nnc12` [Example 97, 1-{2-Chloro-5-[2-(tetrahydro-pyran-4-yl)-ethoxy]-phenyl}-4-methyl-[1,2,4]triazolo[4,3-a]quinoxaline], more than 1000 nM.

As for `Cc1nc2ccccc2n2c(-c3cc(OCC(C)O)ccc3Cl)nnc12` (stereo not shown) [Example 100, 1-[4-Chloro-3-(4-methyl-[1,2,4]triazolo[4,3-a]quinoxalin-1-yl)-phenoxy]-propan-2-ol], the IC50 is 784 nM. On the same count and under the same terms, the result for `Cc1nc2ccc(Cl)cc2n2c(-c3cc(OCCCO)ccc3Cl)nnc12` [Example 101, 3-[4-Chloro-3-(8-chloro-4-methyl-[1,2,4]triazolo[4,3-a]quinoxalin-1-yl)-phenoxy]-propan-1-ol] reads 319 nM; that for `Cc1nc2ccc(Cl)cc2n2c(-c3cc(OCC(C)O)ccc3Cl)nnc12` (stereo not shown) [Example 102, 1-[4-Chloro-3-(8-chloro-4-methyl-[1,2,4]triazolo[4,3-a]quinoxalin-1-yl)-phenoxy]-propan-2-ol], 611 nM.

Take `Cc1nc2ccc(Cl)cc2n2c(-c3cc(O)ccc3Cl)nnc12` [Example 107, 4-Chloro-3-(8-chloro-4-methyl-[1,2,4]triazolo[4,3-a]quinoxalin-1-yl)-phenol]: the IC50 was 13 nM. With `COCCOc1ccc(F)c(-c2nnc3cnc4ccccc4n23)c1` [Example 109, 1-[2-Fluoro-5-(2-methoxy-ethoxy)-phenyl]-[1,2,4]triazolo[4,3-a]quinoxaline], the IC50 is more than 1000 nM. Turning to `Cc1ccc2nc(C)c3nnc(-c4cc(OCCCC(F)(F)F)ccc4Cl)n3c2c1` [Example 110, 1-[2-Chloro-5-(4,4,4,-trifluoro-butoxy)-phenyl]-4,8-dimethyl-[1,2,4]triazolo[4,3-a]quinoxaline], the IC50 was more than 1000 nM. Consider `Cc1nc2cc(C#N)ccc2n2c(-c3cc(OCCCC(F)(F)F)ccc3Cl)nnc12` [Example 111, 7-Cyano-1-[2-chloro-5-(4,4,4,-trifluoro-butoxy)-phenyl]-4-methyl-[1,2,4]triazolo[4,3-a]quinoxaline], for which the IC50 was more than 1000 nM.

Values taken from US9540379B2 (priority 2011, dated 2017).
